The subject of one data set is LoVo. The data set is described as follows: Alamar blue cytotoxicity assay LoVo. Conditions: Homo sapiens, 72 hours, read-out: cellular cytotoxicity IC50 LoVo. In kind it is cell-based. The protocol: (§1) In order to determine the cellular potency of the compounds, the cytotoxicity of each compound was determined against a range of cell lines. Standard cytotoxicity methods were performed as follows: cells were seeded in 96-well plates appropriately for their doubling time (2-5000 cells per well) in RPMI or DMEM media containing 10% FCS and incubated overnight at 37° C., 5% CO2. The media was removed and 100 μl fresh media containing increasing concentrations of appropriate compound was added and the cells incubated for 72 hours at 37° C., 5% CO2. A 10% stock of alamar blue (Roche, Lewes, United Kingdom) was prepared in medium and 100 μl added to the cells which were incubated for 2 hours. Absorbance was measured on the Wallac Victor 2 1420 multi-label counter at 544-595 nm.
(The colour change of resazurin is a common sign of viable cells or microbes.)

The next data set addresses CDK2/cyclin E (Homo sapiens (Human), UniProt P24941). The data set is described as follows: In-vitro recombinant kinase assay CDK2/cyclin E. The class given is biochemical. Conditions: Table 2; average of duplicate points; read-out: CDK2/Cyclin E Average IC50. The protocol: (§2) To evaluate the in-vitro kinase potency of the compounds, they were screened against CDK 2 and CDK9. Kinase assays were performed in 96-well plates using recombinant CDK/cyclins generated at Cyclacel. Ltd Dundee, UK. CDK2 and CDK9 assays were performed in a total volume of 25 μl in assay buffer (25 mM b-glycerophosphate, 20 mM MOPS, 5 mM EGTA, 1 mM DTT and 1 mM NaVO3, pH 7.4), into which were added 2-4 μg of active enzyme with appropriate substrates (purified histone H1 for CDK2/cyclin E, and CDK2/cyclin A, biotinyl-Ahx-(YSPTSPS)4 for CDK9/cyclin T1). […] CDK2 reactions were stopped by addition of 25 μl of 75 mM phosphoric acid, followed by filtration through P81 filterplates (Whatman Polyfiltronics, Kent, UK). For CDK9, the reaction was stopped by addition of 25 μl of 75 mM phosphoric acid, then 5 μl of 10 mg/ml avidin was added to each well and further incubated for 2 min followed by filtration as per CDK2 assay. After washing 3 times with 75 mM orthophosphoric acid, plates were dried, scintillant added and incorporated radioactivity measured in a scintillation counter (TopCount, Packard Instruments, Pangbourne, Berks, UK). Compounds for kinase assay were made up as 10 mM stocks in DMSO and diluted into 10% DMSO in assay buffer.
as §2

The target of data set [1] is T1, CYP2D6 (Homo sapiens (Human), UniProt P10635). Briefly: CYP2D6 inhibition, human liver microsomes, dextromethorphan. In kind it is in vitro ADME. The protocol:
Six test compound concentrations (0.05, 0.25, 0.5, 2.5, 5, 25 μM in DMSO; final DMSO concentration=0.25%) were incubated with human liver microsomes (0.5 mg/mL) and NADPH (1 mM) in the presence of the probe substrate dextromethorphan (5 μM) for 30 min at 37° C. The selective CYP2D6 inhibitor, quinidine, was screened alongside the test compounds as a positive control.
For the CYP1A incubations, the reactions were terminated by the addition of methanol, and the formation of the metabolite, resorufin, was monitored by fluorescence (excitation wavelength=535 nm, emission wavelength=595 nm). For the CYP2C9, CYP2C19, CYP2D6, and CYP3A4 incubations, the reactions were terminated by the addition of methanol containing internal standard. The samples were then centrifuged, and the supernatants were combined, for the simultaneous analysis of 4-hydroxytolbutamide, 4-hydroxymephenyloin, dextrorphan, and 1-hydroxymidazolam plus internal standard by LC-MS/MS using generic LC-MS/MS conditions. Formic acid in deionised water (final concentration=0.1%) was added to the final sample prior to analysis.
On the technique in general: Liver microsomes are vesicles of endoplasmic reticulum, rich in cytochrome P450 enzymes.

The next data set has as its system Mcl-1. The data set is described as follows: Mcl-1 downregulation in H460 cells by Western blotting. The class given is cell-based. The protocol:
The media was removed and the adherent cells washed with 5 ml PBS. […] Proteins were transferred to nitrocellulose membranes (Schleicher & Schuell, Dassel, Germany) using wet electrophoretic transfer. Membranes were stained with Ponceau S to confirm equal loading before blocking in 5% nonfat milk in PBS with 0.05% Tween 20 (PBSTM) for 2 hours. Membranes were incubated overnight at 4° C. with primary antibody (rabbit polyclonal antibody to Mcl-1, Santa Cruz), diluted 1:1000 in PBSTM. Membranes were washed 2×5 minute followed by 2×10 minute in PBS and 0.05% Tween 20 (PBST) and incubated for 1 hour in PBSTM containing horseradish peroxidase-conjugated secondary antibody. Membranes were washed as before and incubated with enhanced chemiluminescence solution (Amersham) and exposed to X-ray film (Amersham).
In a second experiment the effect of additional compounds on Mcl-1 levels was investigated.
In general terms: Immunoblotting shows a protein as a band on a membrane.

The subject of a further data set is Colo205. The data set is described as follows: Alamar blue cytotoxicity assay Colo205. The class given is cell-based. Conditions: Homo sapiens, COLO 205; 72 hours; read-out: cellular cytotoxicity IC50 Colo205. The protocol: as §1
Another data set relates to H2052. The data set is described as follows: Alamar blue cytotoxicity assay H2052. In kind it is cell-based. The conditions noted are these: Homo sapiens, NCI-H2052; 72 hours; read-out: cellular cytotoxicity IC50 H2052. How it is done:
as §1

Data set [2] has as its target T1, CYP2D6. Briefly: Cytochrome P450 substrate identification (Bactosomes) CYP2D6. In kind it is in vitro ADME. Conditions: pH 7.4, 5 μM test compound, up to 45 min, read-out: half life in the presence of CYP2D6. How it is done: (§3) cDNA expressed human CYP450 enzyme preparations co-expressed with human NADPH cytochrome P450 reductase (Bactosomes™) were supplied by Cypex Ltd. Bactosomes™ (final P450 concentration CYP1A2 100 pmol/mL, CYP2C8 50 pmol/mL, CYP2C9 25 pmol/mL, CYP2C19 100 pmol/mL, CYP2D6 50 pmol/mL and CYP3A4 25 pmol/mL), 0.1M phosphate buffer pH7.4 and test compound (final substrate concentration=5 μM; final DMSO concentration=0.25%) were pre-incubated at 37° C. prior to the addition of NADPH (final concentration=1 mM) to initiate the reaction. Incubations were also performed using control bactosomes (no P450 enzymes present) to reveal any non-enzymatic degradation. The final incubation volume was 25 μL. Compounds known to be metabolised specifically by each CYP450 isoform were used as control compounds.
(§4) Each compound was incubated singly for 0, 5, 15, 30 and 45 min with each CYP isoform. The reactions were stopped by the addition of 50 μL methanol containing internal standard at the appropriate time points. The incubation plates were centrifuged at 2500 rpm for 20 min at 4° C. to precipitate the protein. Following protein precipitation, the sample supernatants were combined in cassettes of up to four compounds and analysed using generic LC-MS/MS conditions.
(§5) The In peak area ratio (which has been corrected for any loss in the incubations with the control bactosomes) was plotted against time and the gradient of the line determined.
(§6) The elimination rate constant (k)=(−gradient)

For a further data set, the target named is CYP2C8 (Homo sapiens (Human), UniProt P10632). The data set is described as follows: Cytochrome P450 substrate identification (Bactosomes) CYP2C8. The class given is in vitro ADME. The conditions noted are these: pH 7.4, 5 μM test compound, up to 45 min, read-out: half life in the presence of CYP2C8. How it is done: as §3, §4, §5, §6
CYP2C8, sequence (P10632 whole entry): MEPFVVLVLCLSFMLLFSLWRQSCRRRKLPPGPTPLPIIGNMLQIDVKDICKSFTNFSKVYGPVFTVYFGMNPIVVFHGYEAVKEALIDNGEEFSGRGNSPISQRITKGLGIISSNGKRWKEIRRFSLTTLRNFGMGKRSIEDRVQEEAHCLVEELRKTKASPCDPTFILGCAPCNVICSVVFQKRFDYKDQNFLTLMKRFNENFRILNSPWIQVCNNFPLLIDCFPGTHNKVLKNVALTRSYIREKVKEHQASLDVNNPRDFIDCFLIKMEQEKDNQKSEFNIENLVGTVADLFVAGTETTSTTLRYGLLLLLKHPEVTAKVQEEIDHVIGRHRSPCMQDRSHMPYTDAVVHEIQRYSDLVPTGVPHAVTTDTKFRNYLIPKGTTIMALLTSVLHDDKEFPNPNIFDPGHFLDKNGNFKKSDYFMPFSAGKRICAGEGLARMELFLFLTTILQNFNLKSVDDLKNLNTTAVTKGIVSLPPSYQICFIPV

T1 sequence (P10635 whole entry): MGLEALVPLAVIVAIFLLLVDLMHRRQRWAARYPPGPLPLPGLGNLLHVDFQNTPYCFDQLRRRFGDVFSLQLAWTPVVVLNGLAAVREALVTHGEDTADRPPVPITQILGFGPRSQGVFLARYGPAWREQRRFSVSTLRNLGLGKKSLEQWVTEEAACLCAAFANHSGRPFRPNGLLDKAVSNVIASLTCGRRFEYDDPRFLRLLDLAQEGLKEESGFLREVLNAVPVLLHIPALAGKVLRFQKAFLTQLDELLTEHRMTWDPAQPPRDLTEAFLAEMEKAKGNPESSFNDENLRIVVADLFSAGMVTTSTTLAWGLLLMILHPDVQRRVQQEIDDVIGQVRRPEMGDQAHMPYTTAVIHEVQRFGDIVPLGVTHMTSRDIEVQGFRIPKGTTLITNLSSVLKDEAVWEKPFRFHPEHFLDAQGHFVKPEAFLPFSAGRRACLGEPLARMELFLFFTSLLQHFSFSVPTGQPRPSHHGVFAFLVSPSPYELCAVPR

The half-life is how long it takes for the measured level to halve. Turning to `CC[C@H](Nc1nc(NCc2cnc(C)cc2C)c2ncn(C(C)C)c2n1)[C@@H](C)O` [Compound [1]], the IC50 is 700 nM in the data set with LoVo; 20 nM on CDK2/cyclin E; over 25 µM at CYP2D6 [1]; 310 nM in the data set on Colo205; 290 nM in the data set on H2052. Besides, in the data set on Mcl-1 (H460 cells, 0.5, 1.5, 4.5 and 13.5 μM, 5 hrs), the “downregulating the levels of Mcl-1 (in words)” value is given as “most effective compound from this group”. Also, the “concentration at which significant effects on Mcl-1 levels are observed” value with Mcl-1 (H460 cells, 24 hr) stood at 1.5 µM. For the same compound, the half-life at 5 μM at CYP2D6 [2] and at CYP2C8 was over 45 min in each case.
